{
  "source": "patent US8809343B2",
  "about": "“Pyrimidine derivative, preparation method and use thereof” (Fudan University, priority 2008, dated 2014)",
  "note": "pEC50: −log10 of the molar value.",
  "data": [
    {"tested_on": "HIV-1 IIIB strain", "assay": "Anti-HIV activity: protection of HIV-infected MT-4 cells from virus-induced cell lesions", "assay_type": "cell-based", "settings": "MT-4 cells, Table 1; read-out: EC50 HIV-1(IIIB)", "experimental": "(§1) Anti-virus activity of cells in vitro was determined by Rega Institute for Medical of […] Katholleke University, consisting mainly: inhibitory activity towards HIV-infected MT-4 cells and cell toxicity. The method is described below: exert the compound on the HIV-infected ME-4 cells, and determine the protection of the drug on the cell lesions induced by HIV at varied HIV-infection intervals, calculate the half effective concentration IC50, the required concentration that protect 50% of cells from cell lesions induced by HIV. Toxicity determination is carried out in parallel with anti-HIV activity experiments, also in the cultured MT-4 cells, determine the CC50, the concentration that leads 50% of uninfected cells to cell lesions, and calculate the selectivity index SI=CC50/IC50 with the MTT method.\n(§2) Anti-HIV activity of various compounds is monitored by the inhibitory efficiency of drugs on the cell lesions induced by HIV. Carry out cell culture with MT-4 cells. The adopted virus strains are HIV-1 IIIB strain and drug-resistant viral strain of […].\n(§3) The detailed operation is as follows: the compound is dissolved with DMSO or water and diluted with phosphate buffer saline, 3×10^5 MT-4 cells are cultured with 100 μL various concentrations of compounds for 1 h, then 100 μL suitable virus dilution is added to the compound, and the cells are cultured at 37° C. for 1 h. After being washed for 3 times, the cells are suspended again in the culture media containing or not compounds individually. Subsequently, the cells are transferred to the atmosphere containing 5% CO2 and cultured for 7 days at 37° C., and culture media containing or not compounds are used to replace or supplement the culture solution on the third day after infection. Kinds of culture conditions should be duplicated. The cell lesions caused by virus are monitored with reverse light microscopy everyday. Typically, the virus dilution applied in the present experiments generally cause cell lesion on the fifth day after infection. […] It should be emphasized that, when the compound is poorly water-soluble and can only be dissolved in DMSO, the ratio of DMSO to water is generally below 10% (the final concentration of DMSO in MT-4 cell culture media is smaller than 2%). Because DMSO can influence the anti-virus activity of the tested compounds, blank tests on the solution containing the same concentration of DMSO should be conducted in parallel. Additionally, the final concentration of DMSO is far below the concentration required to influence the replication of HIV-1 in T cells.", "values": [
      {"smiles": "CCc1c(NC)nc(Nc2ccc(C#N)cc2)nc1Oc1ccc2cc(C#N)ccc2c1Br", "note": "[Compound 18]", "pEC50": 8.21},
      {"smiles": "Cc1cc2ccccc2cc1Oc1ccnc(Nc2ccc(C#N)cc2)n1", "note": "[Compound 11]", "pEC50": 8.64}
    ]},
    {"tested_on": "HIV-1 IIIB strain", "assay": "Anti-HIV activity: protection of HIV-infected MT-4 cells from virus-induced cell lesions", "assay_type": "cell-based", "settings": "MT-4 cells, Table 3; read-out: EC50 HIV-1(IIIB)", "experimental": "as §1, §2, §3", "values": [
      {"smiles": "COc1cc(C#N)cc(OC)c1Oc1nc(Nc2ccc(C#N)cc2)nc2ccccc12", "note": "[Compound 41]", "pEC50": 8.66},
      {"smiles": "CCOc1cc(C#N)cc(OCC)c1Oc1nc(Nc2ccc(C#N)cc2)nc2ccccc12", "note": "[Compound 46]", "pEC50": 8.54},
      {"smiles": "Cc1cccc(C)c1Oc1nc(Nc2ccc(C#N)cc2)nc2ccccc12", "note": "[Compound 43]", "pEC50": 7.34},
      {"smiles": "COc1cc(C#N)cc(OC(C)C)c1Oc1nc(Nc2ccc(C#N)cc2)nc2ccccc12", "note": "[Compound 50]", "pEC50": 8.17},
      {"smiles": "CCOc1cc(C#N)cc(OC)c1Oc1nc(Nc2ccc(C#N)cc2)nc2ccccc12", "note": "[Compound 52]", "pEC50": 8.59},
      {"smiles": "Cc1cc(C#N)cc(C)c1Oc1nc(Nc2ccc(C#N)cc2)nc2ccccc12", "note": "[Compound 45]", "pEC50": 8.44},
      {"smiles": "N#Cc1ccc(Nc2nc(Oc3c(Cl)cc(Cl)cc3Cl)c3ccccc3n2)cc1", "note": "[Compound 42]", "pEC50": 8.46},
      {"smiles": "Cc1cc(Br)c(Oc2nc(Nc3ccc(C#N)cc3)nc3ccccc23)c(Br)c1", "note": "[Compound 35]", "pEC50": 7.82},
      {"smiles": "CCOc1cc(C#N)cc(Cl)c1Oc1nc(Nc2ccc(C#N)cc2)nc2ccccc12", "note": "[Compound 49]", "pEC50": 8.23},
      {"smiles": "N#Cc1ccc(Nc2nc(Oc3ccc(F)cc3)c3ccccc3n2)cc1", "note": "[Compound 38]", "pEC50": 6.81},
      {"smiles": "N#Cc1ccc(Nc2nc(Oc3c(Br)cc(Br)cc3Br)c3ccccc3n2)cc1", "note": "[Compound 34]", "pEC50": 7.64},
      {"smiles": "N#Cc1ccc(Nc2nc(Oc3ccc(Cl)cc3)c3ccccc3n2)cc1", "note": "[Compound 40]", "pEC50": 6.78},
      {"smiles": "N#Cc1ccc(Nc2nc(S(=O)(=O)c3ccccc3)c3ccccc3n2)cc1", "note": "[Compound 51]", "pEC50": 6.23},
      {"smiles": "Cc1cc(C#N)ccc1Oc1nc(Nc2ccc(C#N)cc2)nc2ccccc12", "note": "[Compound 33]", "pEC50": 7.55},
      {"smiles": "Cc1cc(C)c(Oc2nc(Nc3ccc(C#N)cc3)nc3ccc(Cl)cc23)c(C)c1", "note": "[Compound 54]", "pEC50": 8.74},
      {"smiles": "Cc1cc(C)c(Oc2nc(Nc3ccc(C#N)cc3)nc3ccccc23)c(C)c1", "note": "[Compound 36]", "pEC50": 7.64},
      {"smiles": "Cc1cn([C@H]2C[C@H](N=[N+]=[N-])[C@@H](CO)O2)c(=O)[nH]c1=O", "note": "[DDN/AZT, reference compound]", "pEC50": 8.29},
      {"smiles": "COc1cc(C#N)cc(Cl)c1Oc1nc(Nc2ccc(C#N)cc2)nc2ccccc12", "note": "[Compound 48]", "pEC50": 8.25},
      {"smiles": "N#Cc1ccc(Nc2nc(Sc3ccccc3)c3ccccc3n2)cc1", "note": "[Compound 44]", "pEC50": 6.12},
      {"smiles": "N#Cc1ccc(Nc2nc(Oc3ccccc3Cl)c3ccccc3n2)cc1", "note": "[Compound 39]", "pEC50": 7.24},
      {"smiles": "N#Cc1ccc(Nc2nc(Oc3ccc(Cl)cc3Cl)c3ccccc3n2)cc1", "note": "[Compound 37]", "pEC50": 7.55},
      {"smiles": "CCCOc1cc(C#N)cc(OCC)c1Oc1nc(Nc2ccc(C#N)cc2)nc2ccccc12", "note": "[Compound 47]", "pEC50": 8.49}
    ]},
    {"tested_on": "MT-4 cells", "assay": "Cell toxicity in uninfected MT-4 cells (MTT method)", "assay_type": "cell-based", "settings": "Table 1", "experimental": "as §1, §3", "units": {"CC50": "nM"}, "values": [
      {"smiles": "CCc1c(NC)nc(Nc2ccc(C#N)cc2)nc1Oc1ccc2cc(C#N)ccc2c1Br", "note": "[Compound 18]", "CC50": 304000},
      {"smiles": "Cc1cc2ccccc2cc1Oc1ccnc(Nc2ccc(C#N)cc2)n1", "note": "[Compound 11]", "CC50": 71200}
    ]},
    {"tested_on": "MT-4 cells", "assay": "Cell toxicity in uninfected MT-4 cells (MTT method)", "assay_type": "cell-based", "settings": "Table 3", "experimental": "as §1, §3", "units": {"CC50": "nM"}, "values": [
      {"smiles": "COc1cc(C#N)cc(OC)c1Oc1nc(Nc2ccc(C#N)cc2)nc2ccccc12", "note": "[Compound 41]", "CC50": "> 93100"},
      {"smiles": "CCOc1cc(C#N)cc(OCC)c1Oc1nc(Nc2ccc(C#N)cc2)nc2ccccc12", "note": "[Compound 46]", "CC50": "> 99300"},
      {"smiles": "Cc1cccc(C)c1Oc1nc(Nc2ccc(C#N)cc2)nc2ccccc12", "note": "[Compound 43]", "CC50": "> 640000"},
      {"smiles": "COc1cc(C#N)cc(OC(C)C)c1Oc1nc(Nc2ccc(C#N)cc2)nc2ccccc12", "note": "[Compound 50]", "CC50": "> 65800"},
      {"smiles": "CCOc1cc(C#N)cc(OC)c1Oc1nc(Nc2ccc(C#N)cc2)nc2ccccc12", "note": "[Compound 52]", "CC50": "> 130000"},
      {"smiles": "Cc1cc(C#N)cc(C)c1Oc1nc(Nc2ccc(C#N)cc2)nc2ccccc12", "note": "[Compound 45]", "CC50": "> 172000"},
      {"smiles": "N#Cc1ccc(Nc2nc(Oc3c(Cl)cc(Cl)cc3Cl)c3ccccc3n2)cc1", "note": "[Compound 42]", "CC50": 244000},
      {"smiles": "Cc1cc(Br)c(Oc2nc(Nc3ccc(C#N)cc3)nc3ccccc23)c(Br)c1", "note": "[Compound 35]", "CC50": 23400},
      {"smiles": "CCOc1cc(C#N)cc(Cl)c1Oc1nc(Nc2ccc(C#N)cc2)nc2ccccc12", "note": "[Compound 49]", "CC50": "> 594000"},
      {"smiles": "N#Cc1ccc(Nc2nc(Oc3ccc(F)cc3)c3ccccc3n2)cc1", "note": "[Compound 38]", "CC50": 310000},
      {"smiles": "N#Cc1ccc(Nc2nc(Oc3c(Br)cc(Br)cc3Br)c3ccccc3n2)cc1", "note": "[Compound 34]", "CC50": 71000},
      {"smiles": "N#Cc1ccc(Nc2nc(Oc3ccc(Cl)cc3)c3ccccc3n2)cc1", "note": "[Compound 40]", "CC50": "> 396000"},
      {"smiles": "N#Cc1ccc(Nc2nc(S(=O)(=O)c3ccccc3)c3ccccc3n2)cc1", "note": "[Compound 51]", "CC50": "> 215000"},
      {"smiles": "Cc1cc(C#N)ccc1Oc1nc(Nc2ccc(C#N)cc2)nc2ccccc12", "note": "[Compound 33]", "CC50": "> 333000"},
      {"smiles": "Cc1cc(C)c(Oc2nc(Nc3ccc(C#N)cc3)nc3ccc(Cl)cc23)c(C)c1", "note": "[Compound 54]", "CC50": 147000},
      {"smiles": "Cc1cc(C)c(Oc2nc(Nc3ccc(C#N)cc3)nc3ccccc23)c(C)c1", "note": "[Compound 36]", "CC50": "> 34100"},
      {"smiles": "Cc1cn([C@H]2C[C@H](N=[N+]=[N-])[C@@H](CO)O2)c(=O)[nH]c1=O", "note": "[DDN/AZT, reference compound]", "CC50": "> 93500"},
      {"smiles": "COc1cc(C#N)cc(Cl)c1Oc1nc(Nc2ccc(C#N)cc2)nc2ccccc12", "note": "[Compound 48]", "CC50": "> 173000"},
      {"smiles": "N#Cc1ccc(Nc2nc(Sc3ccccc3)c3ccccc3n2)cc1", "note": "[Compound 44]", "CC50": 494000},
      {"smiles": "N#Cc1ccc(Nc2nc(Oc3ccccc3Cl)c3ccccc3n2)cc1", "note": "[Compound 39]", "CC50": 343000},
      {"smiles": "N#Cc1ccc(Nc2nc(Oc3ccc(Cl)cc3Cl)c3ccccc3n2)cc1", "note": "[Compound 37]", "CC50": 114000},
      {"smiles": "CCCOc1cc(C#N)cc(OCC)c1Oc1nc(Nc2ccc(C#N)cc2)nc2ccccc12", "note": "[Compound 47]", "CC50": "> 66700"}
    ]},
    {"tested_on": "drug-resistant viral strain of L103N+Y181C", "assay": "Anti-HIV activity in MT-4 cells, drug-resistant viral strain", "assay_type": "cell-based, HIV-1", "settings": "MT-4 cells, Table 1; read-out: EC50 103N + 181C", "experimental": "as §1, §2, §3", "values": [
      {"smiles": "CCc1c(NC)nc(Nc2ccc(C#N)cc2)nc1Oc1ccc2cc(C#N)ccc2c1Br", "note": "[Compound 18]", "pEC50": "< 4.23"},
      {"smiles": "Cc1cc2ccccc2cc1Oc1ccnc(Nc2ccc(C#N)cc2)n1", "note": "[Compound 11]", "pEC50": "< 4.15"}
    ]}
  ]
}
